Data taken from ChEMBL document CHEMBL1159073, “Inhibition of IKK-beta: a new development in the mechanism of the anti-obesity effects of PTP1B inhibitors SA18 and SA32” (Bioorg Med Chem Lett, 2010).
Activity calls are given as the source filed them. The rule behind the calls is not given here.

Key:
[1] = tested on: Mus musculus; assay: Antiobesity activity in high fat diet-induced obese C57BL/6J Jms Slc mouse model assessed as blood triglyceride level administered through diet for 28 days (reference value: 63+/-32); type: functional
[2] = tested on: Mus musculus; assay: Antiobesity activity in high fat diet-induced obese C57BL/6J Jms Slc mouse model assessed as retroperitoneal adipose tissue weight administered through diet for 28 days (reference value: 0.51+/-0.11); type: functional
[3] = tested on: Mus musculus; assay: Antiobesity activity in high fat diet-induced obese C57BL/6J Jms Slc mouse model assessed as blood nonesterified free fatty acid level administered through diet for 28 days (reference value: 0.35+/-0.09); type: functional
[4] = tested on: Mus musculus; assay: Antiobesity activity in high fat diet-induced obese C57BL/6J Jms Slc mouse model assessed as blood total cholesterol level administered through diet for 28 days (reference value: 141+/-10); type: functional
[5] = tested on: Mus musculus; assay: Antiobesity activity in high fat diet-induced obese C57BL/6J Jms Slc mouse model assessed as change in body weight administered through diet for 28 days (reference value: 33.4+/-2.8); type: functional
[6] = tested on: 3T3-L1; assay: Inhibition of IkappaB-alpha degradation in LPS-stimulated mouse 3T3L1 cells at 50 uM pretreated 30 mins before LPS containing cytokine mixture challenge measured after 60 mins by Western blotting; type: functional, cell-based
[7] = tested on: Mus musculus; assay: Antiobesity activity in high fat diet-induced obese C57BL/6J Jms Slc mouse model assessed as epididymal adipose tissue weight administered through diet for 28 days (reference value: 1.8+/-0.49); type: functional
[8] = species: Mus musculus; assay: Inhibition of IkappaB-alpha degradation in LPS-stimulated mouse […] cells at 50 uM pretreated 30 mins before LPS containing cytokine mixture challenge measured by Western blotting; type: functional
[9] = tested on: 3T3-L1; assay: Inhibition of IkappaB-alpha degradation in LPS-stimulated mouse 3T3L1 cells at 50 uM pretreated 30 mins before LPS containing cytokine mixture challenge measured after 30 mins by Western blotting; type: functional, cell-based
[10] = molecular target: T1, Inhibitor of nuclear factor kappa-B kinase subunit beta (Homo sapiens, UniProt O14920); assay: Inhibition of IKK-beta by tome resolved fluorescence assay
T1 sequence (O14920 whole entry): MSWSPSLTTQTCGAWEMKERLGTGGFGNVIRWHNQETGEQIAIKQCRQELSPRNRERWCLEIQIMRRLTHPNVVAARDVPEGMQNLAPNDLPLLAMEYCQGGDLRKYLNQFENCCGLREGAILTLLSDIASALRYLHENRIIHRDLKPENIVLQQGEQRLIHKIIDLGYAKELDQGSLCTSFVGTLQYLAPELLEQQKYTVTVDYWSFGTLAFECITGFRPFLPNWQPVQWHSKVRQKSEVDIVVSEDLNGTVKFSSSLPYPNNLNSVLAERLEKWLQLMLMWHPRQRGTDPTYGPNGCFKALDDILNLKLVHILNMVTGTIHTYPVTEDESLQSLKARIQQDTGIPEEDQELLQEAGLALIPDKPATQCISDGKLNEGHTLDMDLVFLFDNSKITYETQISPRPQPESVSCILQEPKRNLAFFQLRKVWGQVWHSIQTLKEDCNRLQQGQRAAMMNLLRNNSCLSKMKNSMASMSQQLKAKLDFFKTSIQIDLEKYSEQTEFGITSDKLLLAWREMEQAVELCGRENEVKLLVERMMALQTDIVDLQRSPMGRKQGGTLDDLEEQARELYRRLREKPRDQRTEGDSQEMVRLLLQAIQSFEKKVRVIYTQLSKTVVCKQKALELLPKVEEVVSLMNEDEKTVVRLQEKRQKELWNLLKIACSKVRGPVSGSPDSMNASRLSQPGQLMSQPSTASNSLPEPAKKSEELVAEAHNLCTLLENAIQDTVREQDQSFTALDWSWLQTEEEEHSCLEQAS

SMILES	Activity [1]	Activity [2]	Activity [3]	Activity [4]	Activity [5]	inhibition [6]	Activity [7]	inhibition [8]	inhibition [9]	IC50 [10]
O=C(O)c1cc(Cc2cc(C(=O)O)c(O)c(-c3ccccc3)c2)cc(-c2ccccc2)c1O	42 mg/dL	0.26 g	0.24 mEq/L	129 mg/dL	29.2 g	Active	0.86 g	Active	Active	–
O=C(O)c1cc(-c2ccccc2)cc(Cc2cc(-c3ccccc3)cc(C(=O)O)c2O)c1O	48 mg/dL	0.26 g	0.14 mEq/L	133 mg/dL	28.9 g	Active	0.83 g	Active	Active	–
O=C(Nc1cc(Cl)cc2c1[nH]c1cnccc12)c1cccnc1	–	–	–	–	–	–	–	–	–	150 nM
